This is an account of results in patent US7750036B2 (SB Pharmco Puerto Rico Inc., priority 2004, dated 2010).

≈ marks a conversion by molar mass, not a printed value. Read-outs that look alike come from different tables or passages of the source. Some results are limits rather than exact numbers.

One data set can be described thus: physchem. The note with it: pH 7.1, aqueous buffer.
The conditions of data set [1]: cited from earlier work.

A word on the solubility: it is the dissolved amount per volume that the medium holds. In the case of `COc1ccccc1OCCNCC(O)COc1cccc2[nH]c3ccccc3c12` (racemic) [Carvedilol], the values for the solubility (in “physchem”; in data set [1] (above a pH of 9.0)) were 20 to 30 µg/mL (≈ 49.2 to 73.8 µM) and below 1 µg/mL, respectively. In addition, the saturation solubility result is listed as “about 100 μg/mL” in data set [1] (pH=5, room temperature) and “about 23 μg/mL” in data set [1] (pH=7, room temperature).
Turning to `COc1ccccc1OCCNCC(O)COc1cccc2[nH]c3ccccc3c12.Cl` (centres unmarked) [hydrochloride salt of carvedilol], the “solubility of salt generated in situ” value in data set [1] (acidic medium which simulates gastric fluid) is on record as “less soluble”.
